According to ChEMBL document CHEMBL4004878, “Design, synthesis and structure-bactericidal activity relationships of novel 9-oxime ketolides and reductive epimers of acylides” (2017):
Converted amounts (≈) assume the structure as drawn.

How the values were obtained:
Assay type in all cases: functional
Streptococcus pneumoniae [1] = assay: Bacteriostatic activity against […] Streptococcus pneumoniae ATCC 49619 after 20 to 24 hrs by two-fold microbroth dilution method
Streptococcus pneumoniae [2] = assay: Bactericidal activity against […] Streptococcus pneumoniae ATCC 49619 incubated for 20 to 24 hrs followed by sub-culturing for 24 hrs in absence of compound
Streptococcus pneumoniae [3] = assay: Ratio of MBC to MIC for […] Streptococcus pneumoniae ATCC 49619
Streptococcus pneumoniae [4] = assay: Bacteriostatic activity against penicillin-susceptible Streptococcus pneumoniae PU09 after 20 to 24 hrs by two-fold microbroth dilution method
Streptococcus pneumoniae [5] = assay: Bactericidal activity against penicillin-susceptible Streptococcus pneumoniae PU09 incubated for 20 to 24 hrs followed by sub-culturing for 24 hrs in absence of compound
Streptococcus pneumoniae [6] = assay: Ratio of MBC to MIC for penicillin-susceptible Streptococcus pneumoniae PU09
Streptococcus pyogenes [7] = assay: Bacteriostatic activity against Streptococcus pyogenes 01-968 expressing inducible ermA after 20 to 24 hrs by two-fold microbroth dilution method
Streptococcus pyogenes [8] = assay: Bactericidal activity against Streptococcus pyogenes 01-968 expressing inducible ermA incubated for 20 to 24 hrs followed by sub-culturing for 24 hrs in absence of compound
Streptococcus pyogenes [9] = assay: Ratio of MBC to MIC for Streptococcus pyogenes 01-968 expressing inducible ermA
Staphylococcus aureus [10] = assay: Bacteriostatic activity against methicillin-resistant Staphylococcus aureus PU20 expressing constitutive ermC after 20 hrs by two-fold microbroth dilution method; conditions: PU20, 20 h
Staphylococcus aureus [11] = assay: Bactericidal activity against methicillin-resistant Staphylococcus aureus PU20 expressing constitutive ermC incubated for 20 hrs followed by sub-culturing for 24 hrs in absence of compound
Staphylococcus aureus [12] = assay: Bacteriostatic activity against methicillin-resistant Staphylococcus aureus PU32 expressing inducible ermA after 20 hrs by two-fold microbroth dilution method; conditions: PU32, 20 h
Staphylococcus aureus [13] = assay: Bactericidal activity against methicillin-resistant Staphylococcus aureus PU32 expressing inducible ermA incubated for 20 hrs followed by sub-culturing for 24 hrs in absence of compound
Staphylococcus aureus [14] = assay: Ratio of MBC to MIC against methicillin-resistant Staphylococcus aureus PU32 expressing inducible ermA
Moraxella catarrhalis [15] = assay: Bacteriostatic activity against erythromycin-susceptible Moraxella catarrhalis 13L332 after 20 hrs by two-fold microbroth dilution method; conditions: 13L332, 20 h
Moraxella catarrhalis [16] = assay: Bactericidal activity against erythromycin-susceptible Moraxella catarrhalis 13L332 incubated for 20 hrs followed by sub-culturing for 24 hrs in absence of compound
Moraxella catarrhalis [17] = assay: Ratio of MBC to MIC against erythromycin-susceptible Moraxella catarrhalis 13L332
Streptococcus pyogenes [18] = assay: Bacteriostatic activity against Streptococcus pyogenes 12-207 expressing mef after 20 to 24 hrs by two-fold microbroth dilution method
Streptococcus pyogenes [19] = assay: Bactericidal activity against Streptococcus pyogenes 12-207 expressing mef incubated for 20 to 24 hrs followed by sub-culturing for 24 hrs in absence of compound
Streptococcus pyogenes [20] = assay: Ratio of MBC to MIC for Streptococcus pyogenes 12-207 expressing mef
Haemophilus influenzae [21] = assay: Bacteriostatic activity against azithromycin-susceptible/ampicillin-resistant Haemophilus influenzae 11P307 after 20 to 24 hrs by two-fold microbroth dilution method
Haemophilus influenzae [22] = assay: Bactericidal activity against azithromycin susceptible/ampicillin-resistant Haemophilus influenzae 11P307 incubated for 20 to 24 hrs followed by sub-culturing for 24 hrs in absence of compound
Haemophilus influenzae [23] = assay: Ratio of MBC to MIC for azithromycin susceptible/ampicillin-resistant Haemophilus influenzae 11P307
Staphylococcus aureus [24] = assay: Ratio of MBC to MIC for methicillin-resistant Staphylococcus aureus PU20 expressing constitutive ermC
Moraxella catarrhalis [25] = assay: Bacteriostatic activity against erythromycin-susceptible Moraxella catarrhalis 11B366 after 20 hrs by two-fold microbroth dilution method; conditions: 11B366, 20 h
Moraxella catarrhalis [26] = assay: Bactericidal activity against erythromycin-susceptible Moraxella catarrhalis 11B366 incubated for 20 hrs followed by sub-culturing for 24 hrs in absence of compound
Moraxella catarrhalis [27] = assay: Ratio of MBC to MIC against erythromycin-susceptible Moraxella catarrhalis 11B366

| Structure (SMILES) | MIC (Streptococcus pneumoniae [1]) [µg/mL] | MBC (Streptococcus pneumoniae [2]) [µg/mL] | Ratio (Streptococcus pneumoniae [3]) | MIC (Streptococcus pneumoniae [4]) [µg/mL] | MBC (Streptococcus pneumoniae [5]) [µg/mL] | Ratio (Streptococcus pneumoniae [6]) | MIC (Streptococcus pyogenes [7]) [µg/mL] | MBC (Streptococcus pyogenes [8]) [µg/mL] | Ratio (Streptococcus pyogenes [9]) | MIC (Staphylococcus aureus [10]) [µg/mL] | MBC (Staphylococcus aureus [11]) [µg/mL] | MIC (Staphylococcus aureus [12]) [µg/mL] | MBC (Staphylococcus aureus [13]) [µg/mL] | Ratio (Staphylococcus aureus [14]) | MIC (Moraxella catarrhalis [15]) [µg/mL] | MBC (Moraxella catarrhalis [16]) [µg/mL] | Ratio (Moraxella catarrhalis [17]) | MIC (Streptococcus pyogenes [18]) [µg/mL] | MBC (Streptococcus pyogenes [19]) [µg/mL] | Ratio (Streptococcus pyogenes [20]) | other results |
| --- | --- | --- | --- | --- | --- | --- | --- | --- | --- | --- | --- | --- | --- | --- | --- | --- | --- | --- | --- | --- | --- |
| CC[C@H]1OC(=O)[C@H](C)[C@H](OC(=O)Cc2ccccn2)[C@H](C)[C@@H](O[C@@H]2O[C@H](C)C[C@H](N(C)C)[C@H]2O)[C@@](C)(OC/C=C/c2cnc3ccccc3c2)C[C@@H](C)/C(=N\O)[C@H](C)[C@H]2OC(=O)O[C@@]21C | 4 (≈ 4.43 µM) | 16 (≈ 17.7 µM) | 4 | 8 (≈ 8.86 µM) | 16 (≈ 17.7 µM) | 2 | 8 (≈ 8.86 µM) | 64 (≈ 70.9 µM) | 8 | 256 (≈ 283 µM) | > 256 | 64 (≈ 70.9 µM) | > 256 | >4 | 0.5 (≈ 0.554 µM) | > 4 | >8 |  |  |  |  |
| CC[C@H]1OC(=O)[C@H](C)[C@H](OC(=O)Cc2ccccn2)[C@H](C)[C@@H](O[C@@H]2O[C@H](C)C[C@H](N(C)C)[C@H]2O)[C@](C)(OC)C[C@@H](C)/C(=N\OC)[C@H](C)[C@H]2OC(=O)O[C@@]21C | > 64 | > 64 |  | 32 (≈ 41.9 µM) | > 64 |  | > 64 | > 64 |  | > 256 | > 256 | > 256 | > 256 |  | 32 (≈ 41.9 µM) | > 64 |  |  |  |  |  |
| CC[C@H]1OC(=O)[C@@](C)(F)C(=O)[C@H](C)[C@@H](O[C@@H]2O[C@H](C)C[C@H](N(C)C)[C@H]2O)[C@](C)(OC)C[C@@H](C)/C(=N\OCC#Cc2cncc3ccccc23)[C@H](C)[C@H]2OC(=O)O[C@@]21C | ≤ 0.008 | 0.031 (≈ 0.0382 µM) | >=4 | 0.25 (≈ 0.308 µM) | 1 (≈ 1.23 µM) | 4 | 0.062 (≈ 0.0764 µM) | > 0.5 | >8 | 32 (≈ 39.4 µM) | 128 (≈ 158 µM) | 1 (≈ 1.23 µM) | > 8 | >8 |  |  |  | 0.031 (≈ 0.0382 µM) | > 0.25 | >8 | MIC (Haemophilus influenzae [21]): 8 µg/mL (≈ 9.85 µM); MBC (Haemophilus influenzae [22]): > 64 µg/mL; Ratio (Haemophilus influenzae [23]): >8; Ratio (Staphylococcus aureus [24]): 4; MIC (Moraxella catarrhalis [25]): 1 µg/mL (≈ 1.23 µM); MBC (Moraxella catarrhalis [26]): 2 µg/mL (≈ 2.46 µM); Ratio (Moraxella catarrhalis [27]): 2 |
| CC[C@H]1OC(=O)[C@H](C)[C@@H](OC(=O)Cc2ccccn2)[C@H](C)[C@@H](O[C@@H]2O[C@H](C)C[C@H](N(C)C)[C@H]2O)[C@](C)(OC)C[C@@H](C)/C(=N\OC)[C@H](C)[C@H]2OC(=O)O[C@@]21C | 0.125 (≈ 0.164 µM) | 0.25 (≈ 0.327 µM) |  | 0.5 (≈ 0.655 µM) | 1 (≈ 1.31 µM) | 2 | 0.25 (≈ 0.327 µM) | 2 (≈ 2.62 µM) | 8 | > 256 | > 256 | 4 (≈ 5.24 µM) | > 32 | >8 | 0.25 (≈ 0.327 µM) | > 2 | >8 |  |  |  |  |
| C#CCN(C)[C@H]1C[C@@H](C)O[C@@H](O[C@@H]2[C@@H](C)C(=O)[C@@H](C)C(=O)O[C@H](CC)[C@@]3(C)OC(=O)O[C@@H]3[C@@H](C)/C(=N/OC/C=C/c3cnc4ccccc4c3)[C@H](C)C[C@@]2(C)OC)[C@@H]1O | 0.25 (≈ 0.305 µM) | 1 (≈ 1.22 µM) |  | 1 (≈ 1.22 µM) | 4 (≈ 4.88 µM) | 4 | 0.5 (≈ 0.61 µM) | > 4 | >8 | > 256 |  | 16 (≈ 19.5 µM) | > 16 |  |  |  |  | 1 (≈ 1.22 µM) | > 8 | >8 | MIC (Haemophilus influenzae [21]): > 256 µg/mL; MIC (Moraxella catarrhalis [25]): 32 µg/mL (≈ 39 µM); MBC (Moraxella catarrhalis [26]): > 256 µg/mL; Ratio (Moraxella catarrhalis [27]): >8 |
| CC[C@H]1OC(=O)[C@H](C)[C@@H](OC(=O)Cc2ccccn2)[C@H](C)[C@@H](O[C@@H]2O[C@H](C)C[C@H](N(C)C)[C@H]2O)[C@](C)(OC)C[C@@H](C)/C(=N\OC/C=C/c2cccnc2)[C@H](C)[C@H]2OC(=O)O[C@@]21C | 16 (≈ 18.5 µM) | > 64 | >4 | 8 (≈ 9.23 µM) | > 64 | >8 | 64 (≈ 73.8 µM) | > 64 |  | > 256 | > 256 | 256 (≈ 295 µM) | > 256 |  | 32 (≈ 36.9 µM) | 64 (≈ 73.8 µM) | 2 |  |  |  |  |
